{"source": "patent US20190029974A1", "about": "“METHODS FOR TREATING SKIN DISORDERS AND CONDITIONS UTILIZING HAPTENS” (RXi Pharmaceuticals Corporation, priority 2015, published 2019)", "key": {"[1]": {"assay": "Stability of 0.4% DPCP solutions in solvents at 50° C., reverse phase HPLC on a C18 column", "type": "physicochemical", "method": "(§1) The compatibility and solubility of DPCP was determined in both isopropyl myristate (IPM) as well as Polysorbate 80 (PS80). […] Next, the stability of DPCP in these solvents was determined. A solution of 0.4% DPCP in isopropyl myristate and a solution of 0.4% DPCP in Polysorbate 80 was placed at 50° C. for two weeks. The stability of DPCP in these solvents was determined using reverse phase HPLC on a C18 column.\nFor the development of a gel, the stability of DPCP was determined in both Ethanol (ETOH) and Isopropanol (IPA) was determined (0.4% DPCP solutions in each solvent was placed at 50° C. for two weeks; FIG. 3. All solutions contained 0.1% BHT). […] However, DPCP was stable in IPA. The stability of DPCP in the above solvents was determined using reverse phase HPLC on a C18 column."}, "[2]": {"assay": "Solubility of DPCP in solvents for gel and ointment formulations", "type": "physicochemical", "method": "as §1"}}}
{"smiles": "O=c1c(-c2ccccc2)c1-c1ccccc1", "note": "[DPCP, Diphenylcyclopropenone]", "values": [{"measurement": "stability of DPCP in PS80", "setting": "[1]; 0.4% DPCP in Polysorbate 80, 50° C., two weeks", "result": "some degradation"}, {"measurement": "stability of DPCP in ETOH", "setting": "[1]; 0.4% DPCP in ethanol, 0.1% BHT, in the presence of citric acid, 50° C., two weeks", "result": "Some degradation"}, {"measurement": "stability of DPCP in IPA", "setting": "[1]; 0.4% DPCP in isopropanol, 0.1% BHT, 50° C., two weeks", "result": "stable"}, {"measurement": "stability of DPCP in IPM", "setting": "[1]; 0.4% DPCP in isopropyl myristate, 50° C., two weeks", "result": "stable"}, {"measurement": "effect of BHT on degradation of DPCP in PS80", "setting": "[1]; PS80 with butylated hydroxytoloune (BHT)", "result": "reduce the amount of degradation"}, {"measurement": "solubility of DPCP in PS80", "setting": "[2]; Polysorbate 80 (PS80)", "result": "highly soluble"}, {"measurement": "solubility of DPCP in IPM", "setting": "[2]; isopropyl myristate (IPM)", "result": "about 1.1 % w/w"}]}
